{
  "source": "ChEMBL document CHEMBL1137384",
  "about": "“Benzopyrans are selective estrogen receptor beta agonists with novel activity in models of benign prostatic hyperplasia” (J Med Chem, 2006)",
  "assay_type_in_all_cases": "functional, organism-based",
  "key": {"Mus musculus [1]": {"tested_on": "Mus musculus", "assay": "Ventral prostate involution in CD1 mouse at 30 mg/kg, po after 7 days", "parameters": "dose 30 mg/kg", "settings": "Prostate gland"}, "Mus musculus [2]": {"tested_on": "Mus musculus", "assay": "Effect on testosterone level in CD1 mouse plasma at 0.1 mg/kg, po after 7 days", "parameters": "dose 0.1 mg/kg"}, "Mus musculus [3]": {"tested_on": "Mus musculus", "assay": "Effect on dihydro testosterone level in CD1 mouse plasma at 0.1 mg/kg, po after 7 days", "parameters": "dose 0.1 mg/kg"}, "Mus musculus [4]": {"tested_on": "Mus musculus", "assay": "Effect on testes weight in po dosed CD1 mouse after 7 days", "settings": "Testis"}, "Mus musculus [5]": {"tested_on": "Mus musculus", "assay": "Effect on ventral prostate weight in po dosed CD1 mouse after 7 days", "settings": "Prostate gland"}, "Mus musculus [6]": {"tested_on": "Mus musculus", "assay": "Effect on seminal vesicle weight in po dosed CD1 mouse after 7 days"}},
  "note": "Activity calls are given as the source filed them. The calls are words filed in the database; no cut-off is given here.",
  "data": [
    {"molecule": "CC(C)(C)NC(=O)[C@H]1CC[C@H]2[C@@H]3CC[C@H]4NC(=O)C=C[C@]4(C)[C@H]3CC[C@]12C", "values": [
      {"measurement": "Activity", "setting": "Mus musculus [1]", "result": "Active"}
    ]},
    {"molecule": "Oc1ccc([C@@H]2Oc3ccc(O)cc3[C@@H]3CCC[C@@H]32)cc1", "values": [
      {"measurement": "Activity", "setting": "Mus musculus [2]", "result": "inactive"},
      {"measurement": "Activity", "setting": "Mus musculus [3]", "result": "inactive"},
      {"measurement": "Activity", "setting": "Mus musculus [1]", "result": "Active"},
      {"measurement": "Activity", "setting": "Mus musculus [4]", "result": "inactive"},
      {"measurement": "Activity", "setting": "Mus musculus [5]", "result": "Dose-dependent effect"},
      {"measurement": "Activity", "setting": "Mus musculus [6]", "result": "inactive"}
    ]}
  ]
}
